Data on one cell line can be found in the supplement of paper PMC10307832.

Common to all, as to assay: relative viability (nuclei count vs DMSO), 5 days (fraction); higher = more cells survive
Compound in one assay: CCOC(=O)CCNc1cc(N2CCc3ccccc3CC2)nc(-c2ccccn2)n1 [GSK-J4]
In outline:
(§1)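 Hoechst staining, done together with fixation and permeabilisation, marked nuclei for 4× imaging and MetaXpress counting. This followed 5 days without medium change after lung cancer cell lines, kept overnight at 37 °C in 1536-well plates, were pinned with five library-drug doses (not always all listed) spaced by √10 on vehicle-anchored plates. Viability is the ratio of treated-well to vehicle-well nuclei, expressed as a median across plates. Plates passed only at control CV below 25% with at least one doubling.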

Compound in the next assay: CN1CCC(CC1)OC2=CC(=C(C=C2)NC3=NC=C4C(=N3)N(C(=O)N4C)C5CCCC5)OC [AZ3146]
In outline: as §1

Compound in the assay “GSK-J4 + Palbociclib”: CCOC(=O)CCNc1cc(N2CCc3ccccc3CC2)nc(-c2ccccn2)n1 [GSK-J4] + CC(=O)c1c(C)c2cnc(Nc3ccc(N4CCNCC4)cn3)nc2n(C2CCCC2)c1=O [Palbociclib] (partner 0.5 µM)
The gist of the method:
(§2)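 Lung cancer cell lines in 1536-well plates were dosed by pin tool the day after seeding, either with one drug alone or with a fixed anchor-drug dose plus five library-drug doses (not always all listed) in √10 steps. After 5 days, cells were fixed and their nuclei stained in one step (final 0.05% Triton X-100, 1% formaldehyde, 1 ug/ml Hoechst), then counted on 4× images. Relative viability is the nuclei count in treated wells divided by that in vehicle wells. Values are medians of duplicate plates.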

Compound in the assay “GSK-J4 + Tozasertib”: CCOC(=O)CCNc1cc(N2CCc3ccccc3CC2)nc(-c2ccccn2)n1 [GSK-J4] + Cc1cc(Nc2cc(N3CCN(C)CC3)nc(Sc3ccc(NC(=O)C4CC4)cc3)n2)n[nH]1 [Tozasertib] (partner 0.1 µM)
The gist of the method: as §2

For UMC-11, the relative viability with GSK-J4 (0.5 µM) is 0.96; with GSK-J4 (1.581 µM), 0.735; with GSK-J4 (5 µM), 0.741; with GSK-J4 (15.81 µM) it was 1.01; in the assay with GSK-J4 (50 µM), 0.551; with AZ3146 (0.08 µM), 0.863. Moreover, the relative viability with AZ3146 (0.253 µM) is 0.985; with AZ3146 (0.8 µM), 0.971; with AZ3146 (2.53 µM), 0.898; with AZ3146 (8 µM), 0.624; in the assay with GSK-J4 + Palbociclib (first compound 0.5 µM), 0.367; with GSK-J4 + Palbociclib (first compound 1.581 µM), 0.288. In addition, the relative viability came out at 0.35 with GSK-J4 + Palbociclib (first compound 15.81 µM); 0.241 with GSK-J4 + Palbociclib (first compound 50 µM); 0.189 in the assay with GSK-J4 + Tozasertib (first compound 0.5 µM); 0.176 with GSK-J4 + Tozasertib (first compound 15.81 µM); 0.17 with GSK-J4 + Tozasertib (first compound 50 µM).
